Experimental data published in publication PMC11445358 (Applied Microbiology and Biotechnology, 2024).
Residues, ends and D or L forms follow the SMILES beside them. *: point of attachment. Cbz = O=C(OCc1ccccc1)*

Target: T1, microbial transglutaminase (MTG) (Streptomyces mobaraensis, UniProt P81453)
T1 sequence (P81453 77-407): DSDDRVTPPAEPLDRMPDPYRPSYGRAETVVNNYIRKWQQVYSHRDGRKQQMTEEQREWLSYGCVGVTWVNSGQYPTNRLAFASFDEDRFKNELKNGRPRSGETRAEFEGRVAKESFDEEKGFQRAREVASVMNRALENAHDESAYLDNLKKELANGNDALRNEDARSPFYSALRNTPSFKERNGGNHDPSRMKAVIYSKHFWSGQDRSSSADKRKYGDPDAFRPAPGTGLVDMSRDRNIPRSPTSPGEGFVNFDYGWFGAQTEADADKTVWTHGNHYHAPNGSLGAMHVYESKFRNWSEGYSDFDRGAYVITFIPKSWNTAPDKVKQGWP
Assay: colorimetric hydroxamate assay, absorbance at […] nm
Assay type: biochemical
Conditions: 37 °C, 10 min; hydroxamate formation

SMILES: NC(=O)CC[C@H](NC(=O)OCc1ccccc1)C(=O)NCC(=O)O [Z-QG, N-carbobenzoxy-L-glutaminylglycine] (Cbz-Gln-Gly-OH)
- specific activity: specific MTG activity was measured with a colorimetric hydroxamate procedure using N-carbobenzoxy-L-glutaminylglycine (Z-QG)
